Several values for one entry are separate records, joined by “and”; a condition that tells them apart may be missing. Equal values may be shown once. Read-outs that look alike come from different tables or passages of the source.
Tests used:
Wild-type HBV = assay: 5-day transient transfection assay in Huh7 cells, intracellular HBV RI by Southern blot; assay type: cell-based, Hepatitis B Virus; conditions: Wild-type, Huh7 transient transfection; for EC50: read-out: EC50
2.2.15 cells = assay: Cytotoxicity by neutral red dye uptake in 2.2.15 cells; conditions: confluent 2.2.15 cultures, nine daily doses, neutral red uptake
Experimental: (§1) HBV antiviral assays were conducted as previous described (Korba and Gerin, 1992).
(§2) EC50, EC90 and CC50 values (±standard deviations [S.D.]) were calculated by linear regression analysis using data combined from all treated cultures (Korba and Gerin, 1992; Okuse et al., 2005). […] Selectivity index (S.I.) was calculated as CC50/EC90 for HBV assays and CC50/EC50 for HCV assays. EC90 values were used for calculation of the S.I. in HBV assays since at least a […] depression of HBV DNA levels is typically required to achieve statistical significance in this assay system (Korba and Gerin, 1992). For combination treatments, EC50, EC90, CC50 and S.I. are presented for the first compound listed. The molar ratio of the compounds in each combination is also indicated.

HBV Mutant L180M/M204V = assay: 5-day transient transfection assay in Huh7 cells, intracellular HBV RI by Southern blot; assay type: cell-based, Hepatitis B Virus
Experimental: (§3) Activity against LMV-resistant (Allen et al., 1998) and ADV-resistant (Angus et al., 2003) HBV mutants was performed in a 5-day assay using a transient transfection method as previously described (Iyer et al., 2004). Antiviral activity was determined by quantitative Southern blot hybridization of intracellular HBV DNA replication intermediates (HBV RI).

HBV Mutant N236T = assay: as above; assay type: cell-based, Hepatitis B Virus
Experimental: as §3

HBV Mutant L180M = assay: as above; assay type: cell-based, Hepatitis B Virus
Experimental: as §3

HBV Mutant M204I = assay: as above; assay type: cell-based, Hepatitis B Virus
Experimental: as §3

HBV Mutant M204V = assay: as above; assay type: cell-based, Hepatitis B Virus
Experimental: as §3

HBV = HBV antiviral assay in confluent 2.2.15 cell cultures (HBV DNA, quantitative blot hybridization); assay type: cell-based, Hepatitis B Virus
Experimental: EC50, EC90 and CC50 values (±standard deviations [S.D.]) were calculated by linear regression analysis using data combined from all treated cultures (Korba and Gerin, 1992; Okuse et al., 2005). […] Selectivity index (S.I.) was calculated as CC50/EC90 for HBV assays and CC50/EC50 for HCV assays. EC90 values were used for calculation of the S.I. in HBV assays since at least a 3-fold depression of HBV DNA levels is typically required to achieve statistical significance in this assay system (Korba and Gerin, 1992).

HCV replicon = assay: Primary HCV replicon cell assay; assay type: cell-based, Hepatitis C Virus
Experimental: (§4) Antiviral activity of test compounds was assessed in a 3-day assay using the stably-expressing HCV replicon cell line, AVA5 (sub-genomic CON1, genotype 1b) (Blight et al., 2000) maintained as sub-confluent cultures on 96-well plates as previously described (Okuse et al., 2005). Antiviral activity was determined by blot hybridization analysis of intracellular HCV RNA (normalized to the level of cellular B-actin RNA in each culture sample) and cytotoxicity was assessed by neutral red dye uptake after 3 days of treatment. Additional studies were performed using Huh7 cells containing another HCV replicon, H/FL-Neo, a genotype 1a full length construct (Blight et al., 2003). For studies involving human serum, standard culture medium (which contains 10% fetal bovine serum) and assay conditions were maintained.
as §2

[1] = Primary HCV replicon cell assay, cytotoxicity; conditions: human, HCV replicon cells (primary assay), CC50, primary assay
Experimental: as §4, §2

[2] = Cytotoxicity by neutral red dye uptake in 2.2.15 cells; conditions: human
Experimental: as §1, §2

[3] = tested on: HCV replicon, sub-genomic CON1, genotype 1b; assay: 3-day HCV replicon assay in AVA5 cells (intracellular HCV RNA, blot hybridization); assay type: cell-based, Hepatitis C Virus; conditions: Genotype 1b replicon, 3 days; first compound listed for combinations
Experimental: as §4, §2

AVA5 cells = assay: Cytotoxicity by neutral red dye uptake in AVA5 cells; assay type: cell-based; conditions: Genotype 1b replicon, 3 days
[4] = 2.2.15 cells, nine daily doses, read-out: Extracellular virion DNA EC50
[5] = 2.2.15 cells, nine daily doses, read-out: Extracellular virion DNA EC90
[6] = 2.2.15 cells, nine daily doses, read-out: Intracellular HBV RI EC50
[7] = 2.2.15 cells, nine daily doses, read-out: Intracellular HBV RI EC90

CSc1cnc(NC(=O)c2ccccc2O)s1
melting point: 225 to 226 °C

CCCCSc1cnc(NC(=O)c2ccccc2OC(C)=O)s1
melting point: 100 to 101 °C

CCCCSc1cnc(NC(=O)c2ccccc2O)s1
melting point: 180 to 181 °C

CCCCS(=O)(=O)c1cnc(NC(=O)c2ccccc2O)s1
melting point: 235 to 236 °C

CSc1cnc(NC(=O)c2ccc(OC(C)=O)cc2)s1
melting point: 193.3 to 195.5 °C and 193.5 to 195.5 °C

CSc1cnc(NC(=O)c2cccc(OC(C)=O)c2)s1
melting point: 135.2 to 136.2 °C

CC(C)(C)C(=O)OCOP(=O)(COCCn1cnc2c(N)ncnc21)OCOC(=O)C(C)(C)C [ADV, adefovir dipovoxil]
EC90 (Wild-type HBV): 7 ± 0.8 µM
EC50 (Wild-type HBV): 2000 ± 200 nM
CC50 (2.2.15 cells): > 300 µM
EC50 (HBV Mutant L180M/M204V; L180M/M204V, read-out: EC50): 2500 ± 300 nM
EC90 (HBV Mutant L180M/M204V; L180M/M204V, read-out: EC90): 7.6 ± 0.8 µM
EC50 (HBV Mutant N236T; N236T, read-out: EC50): 11 ± 1.3 µM
EC90 (HBV Mutant N236T; N236T, read-out: EC90): 32 ± 3.6 µM
EC50 (HBV Mutant L180M; L180M, read-out: EC50): 2.6 ± 0.3 µM
EC90 (HBV Mutant L180M; L180M, read-out: EC90): 7.3 ± 0.8 µM
EC50 (HBV Mutant M204I; M204I, read-out: EC50): 2500 ± 300 nM
EC90 (HBV Mutant M204I; M204I, read-out: EC90): 8.5 ± 1 µM
EC50 (HBV Mutant M204V; M204V, read-out: EC50): 1500 ± 200 nM
EC90 (HBV Mutant M204V; M204V, read-out: EC90): 7.2 ± 0.8 µM
EC50 (HBV; [4]): 1000 ± 200 nM
EC90 (HBV; [5]): 3000 ± 300 nM

CC(=O)Oc1ccccc1C(=O)Nc1ncc(S(C)(=O)=O)s1 [Compound 7, 2-(5-(methylsulfonyl)thiazol-2-ylcarbamoyl)phenyl acetate]
EC50 (HCV replicon; Hepatitis C virus): > 10 µM
EC90 (HCV replicon; Hepatitis C virus): > 10000 nM
CC50 at 3 days [1]: 20 µM

CS(=O)(=O)Oc1ccccc1C(=O)Nc1nccs1 [Compound 11, 2-(thiazol-2-ylcarbamoyl)phenyl methanesulfonate]
melting point: 185.5 to 187.8 °C
EC50 (HCV replicon; Hepatitis C virus): > 10 µM
EC90 (HCV replicon; Hepatitis C virus): > 10000 nM
CC50 at 3 days [1]: > 100 µM

CS(=O)(=O)c1csc(NC(=O)c2ccccc2O)n1 [Compound 60, 2-hydroxy-N-(4-(methylsulfonyl)thiazol-2-yl)benzamide]
EC90 (HCV replicon): 654 nM
EC90 (HCV replicon; Hepatitis C virus): 585 nM

CC(=O)Oc1ccccc1C(=O)Nc1nc(S(C)(=O)=O)cs1 [Compound 62, 2-{[4-(methylsulfonyl)-1,3-thiazol-2-yl]carbamoyl}phenyl acetate]
EC50 (HCV replicon; Hepatitis C virus): > 10 µM
EC90 (HCV replicon; Hepatitis C virus): > 10000 nM
CC50 at 3 days [1]: > 100 µM

Nc1ccn([C@@H]2CS[C@H](CO)O2)c(=O)n1 [LMV, lamivudine]
EC90 (Wild-type HBV; Hepatitis B virus, Huh-7): 0.9 ± 0.2 µM
EC50 (Wild-type HBV; Hepatitis B virus, Huh-7): 200 ± 100 nM
CC50 at 9 days [2]: 2.35 ± 0.088 mM
EC50 (HBV Mutant L180M/M204V; Hepatitis B virus, Huh-7): > 100000 nM
EC90 (HBV Mutant L180M/M204V; Hepatitis B virus, Huh-7): > 100 µM
EC50 (HBV Mutant N236T; Hepatitis B virus, Huh-7): 0.3 ± 0.1 µM
EC90 (HBV Mutant N236T; Hepatitis B virus, Huh-7): 1.2 ± 0.2 µM
EC50 (HBV Mutant L180M; Hepatitis B virus, Huh-7): 16 ± 2 µM
EC90 (HBV Mutant L180M; Hepatitis B virus, Huh-7): 46 ± 5.6 µM
EC50 (HBV Mutant M204I; Hepatitis B virus, Huh-7): > 100000 nM
EC90 (HBV Mutant M204I; Hepatitis B virus, Huh-7): > 100 µM
EC50 (HBV Mutant M204V; Hepatitis B virus, Huh-7): > 100000 nM
EC90 (HBV Mutant M204V; Hepatitis B virus, Huh-7): > 100 µM
Selectivity Index Virion (HBV; CC50/EC90, extracellular virion DNA): 15646
Selectivity Index RI (HBV; CC50/EC90, intracellular HBV RI): 4267
EC50 (HBV; Hepatitis B virus, read-out: Intracellular HBV RI EC50): 160 ± 30 nM
EC50 (HBV; Hepatitis B virus, 2.2.15 cells, Table 3 experiment, read-out: HBV R.I. EC50): 160 ± 20 nM
EC90 (HBV; Hepatitis B virus, 2.2.15 cells, Table 3 experiment, read-out: HBV R.I. EC90): 560 ± 70 nM
EC50 (HBV; Hepatitis B virus, 2.2.15 cells, Table 3 experiment, read-out: Virion production EC50): 50 ± 10 nM
EC90 (HBV; Hepatitis B virus, 2.2.15 cells, Table 3 experiment, read-out: Virion production EC90): 150 ± 20 nM
EC50 (HBV; Hepatitis B virus, 2.2.15 cells, nine daily doses, read-out: Extracellular virion DNA EC50): 50 ± 10 nM
EC90 (HBV; Hepatitis B virus, 2.2.15 cells, nine daily doses, read-out: Extracellular virion DNA EC90): 150 ± 20 nM
EC90 (HBV; Hepatitis B virus, 2.2.15 cells, nine daily doses, read-out: Intracellular HBV RI EC90): 550 ± 60 nM

O=C(Nc1ncc(Cl)s1)c1ccccc1O [RM4848]
CC50 (2.2.15 cells): > 100 µM
EC50 [3]: > 20 µM
EC90 [3]: > 20 µM
EC50 (HBV; [4]): 370 ± 70 nM
EC90 (HBV; [5]): 1700 ± 200 nM
CC50 (AVA5 cells): 15 ± 0.1 µM

Cc1cccc(C(=O)Nc2ncc(Cl)s2)c1O [RM4851]
CC50 (2.2.15 cells): > 100 µM
EC50 [3]: > 20 µM
EC90 [3]: > 20 µM
EC50 (HBV; [4]): > 10000 nM
EC90 (HBV; [5]): > 10000 nM
EC50 (HBV; [6]): > 10000 nM
EC90 (HBV; [7]): > 10000 nM
CC50 (AVA5 cells): 5.6 ± 0.3 µM

Cc1ccc(C(=O)Nc2ncc(Cl)s2)c(O)c1 [RM4852]
CC50 (2.2.15 cells): > 100 µM
EC50 [3]: > 20 µM
EC90 [3]: > 20 µM
EC50 (HBV; [4]): 1000 ± 100 nM
EC90 (HBV; [5]): 3300 ± 300 nM
EC50 (HBV; [6]): 2700 ± 300 nM
EC90 (HBV; [7]): 6300 ± 700 nM
CC50 (AVA5 cells): 6.7 ± 0.4 µM
